PMC6836034, “The Effect of Silymarin Flavonolignans and Their Sulfated Conjugates on Platelet Aggregation and Blood Vessels Ex Vivo” (Nutrients, 2019)

Molecular target: T1, COX-1 (cyclooxygenase-1) (Ovis aries, UniProt P05979)
T1 construct: gene PTGS1
T1 sequence (P05979 25-600): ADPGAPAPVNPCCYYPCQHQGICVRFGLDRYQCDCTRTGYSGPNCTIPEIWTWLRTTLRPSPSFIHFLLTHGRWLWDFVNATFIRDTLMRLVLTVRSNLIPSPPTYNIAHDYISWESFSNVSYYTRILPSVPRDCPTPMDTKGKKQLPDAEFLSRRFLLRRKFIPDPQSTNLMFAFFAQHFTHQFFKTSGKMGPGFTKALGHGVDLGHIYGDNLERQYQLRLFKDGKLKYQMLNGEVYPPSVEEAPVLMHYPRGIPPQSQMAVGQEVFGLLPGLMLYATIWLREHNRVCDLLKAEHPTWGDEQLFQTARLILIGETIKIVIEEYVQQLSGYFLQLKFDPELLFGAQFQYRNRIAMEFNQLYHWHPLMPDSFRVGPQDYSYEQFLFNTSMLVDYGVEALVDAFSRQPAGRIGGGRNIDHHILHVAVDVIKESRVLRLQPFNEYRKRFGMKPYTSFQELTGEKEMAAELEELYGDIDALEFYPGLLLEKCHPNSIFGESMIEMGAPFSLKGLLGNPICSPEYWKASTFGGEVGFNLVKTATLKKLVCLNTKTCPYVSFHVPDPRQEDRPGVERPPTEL
Assay: biochemical

- IC50: 25.2 ± 10.4 µM
Structure (SMILES): COc1cc(C2Oc3cc(-c4oc5cc(O)cc(O)c5c(=O)c4O)ccc3OC2CO)ccc1O (racemic) [2,3-dehydrosilybin]
